Source: patent US20240295545A1, “GLIOMA THERAPY” (Imperial College Innovations Limited, priority 2021, published 2024)
Entries after “also recorded” stand apart in the source; their conditions may differ.

Columns and labels:
GBM1 cells = assay: Glioma suppression assay (SRB proliferation); assay type: cell-based, human; settings: in vitro; FIG. 4D
Protocol: • 1. Without removing the cell culture medium, gently add 50% cold TCA to each well (the final concentration of TCA should be 10%), and incubate the plates at 4° C. for 1 h. For 150 μL medium volume in each well, add 30 μL of 50% TCA. • 2. Wash the plates 4 times with slow-running tap water. Then allow the plates to air-dry at RT. After fixing and drying, the plates can be stored indefinitely at RT. • 3. Add 0.4% SRB solution to each well (e.g. 80 μL/well). Leave at room temperature for 1 h (no shaking) and then quickly rinse the plates 4 times with 1% acetic acid to remove unbound dye. Then allow the plates to dry at RT. Stained and dried plates can be stored indefinitely at RT. • 4. Add 10 mM Tris base solution to each well (e.g. 80 μL/well) and shake the plate for 5 min to solubilize the protein-bound dye. Alternatively, if a shaker is not available, SRB can be solubilized after 30 min in 10 mM Tris base solution. • 5. Measure the OD at […] in a microplate reader. The suboptimal wavelengths should be 490-530 nm.
1000 Grade IV cells (cell line 1 in FIG. 2) were plated in cell culture medium (10% FBS in DMEM) per each well in 96-well plates. On day 1, the cells were treated with 10 μM of the indicated drugs and incubated at 37° C. for 5 days. SRB assay was performed prior to addition of the drugs and after 5 days. The values were normalized against those of the control (untreated cultures). […]

[1] = biological target: T1, mitochondrial F1Fo ATP Synthase c-subunit leak channel (Sus scrofa, UniProt A1XQS5); assay: ACMA assay (H+ leak in submitochondrial vesicles); assay type: biochemical, pig; settings: negative control; swine brain SMVs
T1 construct: isolated swine brain submitochondrial vesicles (SMVs), which are enriched for the F1Fo ATP synthase; from tissue; host or cells: pig (swine) brain, submitochondrial vesicles
Protocol: ACMA assay buffer (concentrations used throughout the assay):
ACMA solution: • Stock solution of 1 mg/ml (3.87 mM) ACMA in 100% ethanol • Diluted to working solution (3 μM) in assay buffer • Aliquots of 10 μL to be added to wells
• 1. Sub-mitochondrial vesicles (SMVs) isolated from pig brains were thawed and prepared to 0.17 μg/μL in ACMA assay buffer. • 2. Drug solutions were added to 386-well plates at a final concentration of 10 μM. • 3. Sub-mitochondrial vesicles (SMVs), isolated from pig brains, were thawed and prepared to 0.17 μg/μL in ACMA assay buffer. 30 μL of this solution (containing 5 μg of polypeptide, as measured via the QuickStart Bradford Protein Assay (Bio-Rad, UK)) was added to each well. • 4. Stock solution of 1 mg/ml (3.87 mM) ACMA (9-amino-6-chloro-2-methoxyacridine) were diluted to working solution 3 μM in assay buffer. Aliquots of 10 μL were added to each well (final concentration of 0.75 μM). • 5. The samples were mixed and incubated at room temperature for 20 mins. • 6. The ACMA fluorescence was measured at 1 min intervals using a Tecan Infinite M200 plate reader—excitation 412 nm, emission 480 nm. • 7. […] Fluorescence was measured quickly after addition of ATP for another 7 mins (1 min intervals). […]

Grade IV (GBM) cells = assay: Proliferation of primary tumour cells incubated with mitochondrial toxins, GBM; assay type: cell-based, human; settings: rotenone 100 nM, oligomycin 50 nM, UK5099 10 μM; hypoxia and normoxia; FIG. 1B
Description: (§1) The cell lines employed were low-passage lines, derived from tumour tissue. The cells were obtained from tumour tissue of a highly proliferative glioma (which was a grade IV/glioblastoma multiforme glioma). For comparison, cells were also obtained from a tumour tissue of a comparatively slow-growing glioma (which was a grade III glioma).
(§2) The inventors compared the metabolic and mitochondrial energetic profile of slow-growing glioma/astrocytoma cells (chosen in particular due to their relatively slow growth rate) to that in cells of a highly proliferative glioma primary tumour cells by performing ‘hypoxia’ experiments with primary tumour cells, in which primary tumour cells were deprived of adequate oxygen supply and compared with control cells not so deprived (‘normoxia’). […] The slow growing cells were selected from a grade III glioma, and the highly proliferative cells were chosen from a grade IV glioma i.e. glioblastoma multiforme cells.
(§3) To further investigate this, primary tumour cells were incubated (both under hypoxia and normoxia) with the toxins rotenone (100 nM), oligomycin (50 nM), a combination of rotenone and oligomycin (100 nM and 50 nM, respectively) or UK5099 (10 μM).

[2] = system: grade III astrocytoma cells; assay: Proliferation of primary tumour cells incubated with mitochondrial toxins, grade III; assay type: cell-based, human; settings: rotenone 100 nM, oligomycin 50 nM, UK5099 10 μM; hypoxia and normoxia; FIG. 1B
Description: as §1, §2, §3

T1 sequence (A1XQS5 62-136): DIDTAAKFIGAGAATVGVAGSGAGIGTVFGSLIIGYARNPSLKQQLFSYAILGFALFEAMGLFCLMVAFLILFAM

| Structure (SMILES) | effect on proliferation of GBM1 cell line (highest rate of proliferation) (GBM1 cells) | ATP response in ACMA assay [1] | effect on proliferation of GBM cells (Grade IV (GBM) cells) | effect on proliferation of grade III astrocytoma cells [2] |
| --- | --- | --- | --- | --- |
| Cn1nnc2c(C(N)=O)ncn2c1=O [TMZ, temozolomide] | no effect |  |  |  |
| CC[C@H]1/C=C/C=C/C[C@@H](C)[C@H](O)[C@@](C)(O)C(=O)[C@@H](C)[C@H](O)[C@@H](C)C(=O)[C@@H](C)[C@H](O)[C@@H](C)/C=C/C(=O)O[C@@H]2[C@H](C)[C@H](CC1)O[C@]1(CC[C@H](C)[C@H](C[C@@H](C)O)O1)[C@H]2C [oligomycin] |  | attenuated | decreases the proliferation; also recorded: impeded the proliferation | without a significant effect |
| N#CC(C#N)=NNc1ccc(OC(F)(F)F)cc1 [FCCP, carbonylcyanide p-trifluoromethoxyphenylhydrazone] |  | attenuated |  |  |
| C=C(C)[C@H]1Cc2c(ccc3c2O[C@@H]2COc4cc(OC)c(OC)cc4[C@@H]2C3=O)O1 [rotenone] |  |  | decreases the proliferation; also recorded: impeded the proliferation | without a significant effect |
| N#C/C(=C\c1cn(-c2ccccc2)c2ccccc12)C(=O)O [UK5099] |  |  | decreases the proliferation; also recorded: impeded the proliferation | without a significant effect |
